Laboratory results as given in patent US20070112076A1, “Methods and materials for treating retinopathy” (SOUTHERN ILLINOIS UNIVERSITY, priority 2005, published 2007).

Legend:
[1] = test system: iNOS protein expression in human retinal endothelial cells; test: Western blot of iNOS protein expression after agonist treatment of retinal endothelial cells; type: cell-based
Experimental: (§1) Denaturing sample buffer (1 ml 2×GDW, 640 μl 1 M Tris-HCl, pH 6.8, 420 μl 30% glycerol, 250 μl β-mercaptoethanol, 200 μL 0.05% bromophenol blue, and 0.125 g recrystallized SDS) was added to 50 μg of protein, as determined by Bradford assay. Protein samples with sample buffer were centrifuged for 5 min to thoroughly mix the samples, followed by heat denaturation for 5 min at 100° C. Protein samples were then separated on 4-12% pre-cast tris-glycine gels (Invitrogen, Carlsbad, Calif.). Electrophoresis and immunoblotting were done as previously described (Steinle et al., J. Biol. Chem. 278 (2003) (23), pp. 20681-20686) using antibodies to iNOS (diluted 1:500, Chemicon, Temecula, Calif.) and PGE2-EP2 receptor subtype (diluted 1:500, Chemicon). Mean densitometry of immunoreactive bands was assessed using Kodak software, and results are expressed in densitometric units. A paired T-test was performed between the sympathectomized and contralateral retina with significance accepted at P<0.05.
(§2) Initial studies focused on human retinal endothelial cells, which express β-adrenergic receptors. Human microvascular retinal endothelial cells were isolated by Applied Cell Biology Research Institute and sold by Cell Systems (Kirkland, Wash.). Cells were used at passage 3-5 for all experiments. Cells were identified as endothelial cells on the basis of their cobblestone morphology. Cells were grown in attachment factor-coated Corning® dishes and in either high or low glucose media. Both high and low glucose media were identical (purchased from Cell Systems and supplemented with 20% fetal bovine serum, 100 IU/ml penicillin, 100 μg/ml streptomycin, and 0.25 μg/ml amphotericin B) except for the glucose concentration: 25 mM glucose (high glc) or 5 mM glucose (low glc). Cells were adjusted to the appropriate glucose environment for 5 days before the experiments were conducted in starvation medium. Starvation medium had the appropriate concentration of glucose and contains all of the above ingredients except that 0.2% bovine serum albumin is substituted for 20% serum.
For experiments, cells were starved for 18-24 h using starvation medium to insure that the results obtained are due to agonist stimulation, not residual effects from the serum. Following starvation, 10 μM isoproterenol (non-specific β-adrenergic receptor agonist), 10 μM xamoterol (β1-adrenergic receptor subtype agonist), or 10 μM BRL37344 (β3-adrenergic receptor subtype agonist) was placed onto dishes and allowed to act on the cells for 1, 2, or 6 h. Three dishes received no treatment and serve as not-treated controls. […] The effects of xamoterol and BRL37344 were evaluated under high glucose conditions only. […]

retina = conditions: osmotic pump in the rat; cited from earlier work
[2] = test system: CREB protein expression in the retina; test: Western blot of CREB protein expression in retina after eye drops; type: in vivo, rat; conditions: 100 μM eye drops, diabetic animals, 8 hours, compared to the normal group
Experimental: Three groups of animals were used for these experiments. The first group was made diabetic by a single injection of 60 mg/kg streptozotocin and allowed to remain diabetic for 2.5 month and received 4 drops of 100 μM isoproterenol placed into both eyes (STZ). The other two groups were control groups, with one group being non-diabetic but receiving the 100 μM isoproterenol eye drops (Normal), and the other group not receiving any treatment (NT). At 4, 8 and 12 hours after treatment with isoproterenol, retina from the rats was assayed for PKA by ELISA and CREB by Western blot analysis.
Western blot analysis was also done to determine protein expression of CREB. Two rats were evaluated at each time point (4 hours, 8 hours and 12 hours). Animals were sacrificed and the eyes were removed. The retina was extracted and placed into lysis buffer (50 mM Tris-HCL, pH 7.4; 1% NP-40, 0.25% Na-deoxycholate; 150 mM NaCl; 1 mM EDTA; 1 mM PMSF; 1 μg/ml each of aprotinin, leupeptin, pepstatin; 1 mM Na3VO4; 1 mM NaF; 0.1% SDS). Protein lysates were homogenized and centrifuged to generate a pellet and supernatant. […] Immunoreactive bands were detected by enhanced SuperSignal (Pierce, Rockford, Ill.) and analyzed using the Kodak 2000R image station. Mean densitometry was assessed using Kodak software, and results are expressed as a percentage of the not treated eyes. […]

[3] = test system: PKA activity in the retina; test: PKA ELISA on retinal lysates after eye drops; type: in vivo, rat; conditions: 4 drops of 100 μM eye drops
Experimental: Three groups of animals were used for these experiments. The first group was made diabetic by a single injection of 60 mg/kg streptozotocin and allowed to remain diabetic for 2.5 month and received 4 drops of 100 μM isoproterenol placed into both eyes (STZ). The other two groups were control groups, with one group being non-diabetic but receiving the 100 μM isoproterenol eye drops (Normal), and the other group not receiving any treatment (NT). At 4, 8 and 12 hours after treatment with isoproterenol, retina from the rats was assayed for PKA by ELISA and CREB by Western blot analysis. The retina of rats from each group was assayed for PKA by ELISA. Three rats were evaluated at each time point (4 hours, 8 hours and 12 hours). The PKA ELISA was carried out using the […] Protein Kinase Assay System from Upstate (Lake Placid, N.Y.). To begin the experiments, 0.1M ATP was made and set to a pH of 7.0. cAMP at a concentration of 20 μM was made with reagents purchased from Sigma Aldrich. To obtain the samples to be assayed, animals were sacrificed and the retina was removed and placed in reaction buffer supplied in the kit. One hundred microliters of each sample in reaction buffer was placed into coated wells of a 96-well plate in duplicate. […] Following application of 100 μL of stop solution to end the reaction with the substrate, the plate was read at 490 nm on a BioTek Plate Reader.

[4] = test system: PGE2 levels in human retinal endothelial cells; test: PGE2 ELISA in retinal endothelial cells after agonist treatment; type: cell-based; conditions: low or high glucose media, 10 μM, 1, 2 or 6 h
Text: as §2, with “An ELISA assay to measure PGE2 content in cell culture supernatants and retinal samples was purchased from Endogen (Pierce Biotechnology, Rockford, Ill.) and used according to the manufacturer's instructions. Initial” for “Initial”, “serum. […] The effects of xamoterol and BRL37344 were evaluated under high glucose conditions only.” for “serum.”

[5] = test system: PGE2-EP2 receptor subtype expression in human retinal endothelial cells; test: Western blot of PGE2-EP2 receptor subtype expression in retinal endothelial cells; type: cell-based; conditions: low or high glucose media, 10 μM, 1, 2 or 6 h
Experimental: as §1
Initial studies focused on human retinal endothelial cells, which express β-adrenergic receptors. […]
For experiments, cells were starved for 18-24 h using starvation medium to insure that the results obtained are due to agonist stimulation, not residual effects from the serum. […] The effects of xamoterol and BRL37344 were evaluated under high glucose conditions only. […]

[6] = high glucose medium, 10 μM, 1, 2 or 6 h, vs. NT

C[C@H](Cc1ccc(OCC(=O)O)cc1)NC[C@H](O)c1cccc(Cl)c1 [BRL37344]
iNOS protein expression [1, 6]: no effect

Cc1ccc(N(CC2=NCCN2)c2cccc(O)c2)cc1 [phentolamine]
retinal changes as observed after sympathectomy (retina): no effect

O=C(NCCNCC(O)COc1ccc(O)cc1)N1CCOCC1 (centres unmarked) [xamoterol]
iNOS protein expression [1, 6]: decreased iNOS protein expression

CC(C)NCC(O)COc1cccc2ccccc12 (centres unmarked) [propranolol]
retinal changes as observed after sympathectomy (retina): can be mimicked

CC(C)NCC(O)c1ccc(O)c(O)c1 (centres unmarked) [isoproterenol]
CREB protein expression in retina [2]: substantial increase | PKA activity in retina ([3]; 12 hours after treatment): significantly increased at 12 hours after treatment relative to the normal, but not when compared to the not treated group | PKA activity in retina ([3]; STZ diabetic rats, 8-hour time point, P<0.05 vs. not-treated and vs. normal): significantly increased | PGE2 protein levels [4]: did not affect | iNOS protein expression ([1]; high glucose (25 mM) medium, 10 μM, 6 h, P<0.05 vs. not treated): significantly reduced | iNOS protein expression ([1]; low glucose (5 mM) medium, 10 μM, 6 h, P<0.05 vs. not treated): upregulation | PGE2-EP2 receptor subtype expression [5]: did not affect
